Reference: patent US11389447B2 (Janssen Sciences Ireland Unlimited Company, priority 2006, dated 2022)
Read-outs that look alike come from different tables or passages of the source.

Test: Kinetic study: plasma kinetics of TMC278 after single IM or SC injection of a nanosuspension;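 note: healthy male beagle dogs injected in both biceps femoris muscles (IM) or both thoracal sides (SC), total volume 0.2 mL/kg, drug measured in plasma from blood samples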
Type: in vivo, male beagle dogs
Settings: 5 mg/kg; for AUC(0-t) / Cmax / Tmax / concentration at 0 h / concentration at 1 h / concentration at 3 h / concentration at 8 h / concentration at 24 h / concentration at 48 h / concentration at 72 h / concentration at 144 h / concentration at 192 h / concentration at 240 h / concentration at 312 h / concentration at 384 h / concentration at 480 h / concentration at 648 h / concentration at 696 h / concentration at 864 h / concentration at 1032 h / concentration at 1200 h / concentration at 1368 h / concentration at 1536 h / concentration at 1704 h / concentration at 1872 h / concentration at 2040 h / concentration at 2208 h: male, beagle, dog, plasma; for AUC(0-t) / Cmax / Tmax: im, single IM 5 mg/kg TMC278 nanosuspension; for Cmax: read-out: Cmax; for Tmax: read-out: Tmax; for concentration at 0 h / concentration at 1 h / concentration at 3 h / concentration at 8 h / concentration at 24 h / concentration at 48 h / concentration at 72 h / concentration at 144 h / concentration at 192 h / concentration at 240 h / concentration at 312 h / concentration at 384 h / concentration at 480 h / concentration at 648 h / concentration at 696 h / concentration at 864 h / concentration at 1032 h / concentration at 1200 h / concentration at 1368 h / concentration at 1536 h / concentration at 1704 h / concentration at 1872 h / concentration at 2040 h / concentration at 2208 h: intramuscular, plasma concentration of TMC278, single IM 5 mg/kg TMC278 nanosuspension
Method: Six healthy male beagle dogs with body weights ranging from 8 to 16 kg at the start of the study, were used. Each dog was identified by an ear tattoo number. Two dogs were dosed intramuscularly (IM) in the left and right m. biceps femoris (treatment group A). […] Two dogs were dosed subcutaneously (SC) in the left and right thoracal region. The injection volume was 2×0.1 ml/kg in all treatment groups. A 20 G needle was used.
Blood samples of 3 ml were taken from the left jugular vein from all dogs on day 0 at 0 h (predose), 20 min, 1 h, 3 h, 8 h and 24 h post-dose and further on days 2, 3, 6, 8, 10, 13, 16, 20, 23, 27, 29, 36, 43, 50, 57, 64, 71, 78, 85 and 92 at approximately 8 AM. Blood samples were placed on EDTA, EDTA Vacuette Greiner, Cat. No. 454086, Greiner Labortechnik N.V.). Within 2 h of blood sampling, samples were centrifuged at room temperature at about 1900×g for 10 minutes to allow plasma separation. Plasma was immediately transferred into a second tube and stored in the freezer within 2 hours after the start of centrifugation.

Question: What does the source list for Cc1cc(C=CC#N)cc(C)c1Nc1ccnc(Nc2ccc(C#N)cc2)n1 [TMC278, 4-[[4-[[4-(2-cyanoethenyl)-2,6-dimethylphenyl]amino]-2-pyrimidinyl]amino]benzonitrile]?
Answer: blood plasma levels after injection (in words) (injectable formulation of nanonised substance, male beagle dogs): stable blood plasma levels during a prolonged period of time; AUC(0-t) (dog 17264, read-out: AUC0-312 h): 27400 ng·h/mL; AUC(0-t) (dog 17264, read-out: AUC0-696 h): 34800 ng·h/mL; AUC(0-t) (dog 17264, read-out: AUC0-2208 h): 40500 ng·h/mL; Cmax (dog 17264): 159 ng/mL; Tmax (dog 17264): 48 h; AUC(0-t) (dog 18186, read-out: AUC0-312 h): 26600 ng·h/mL; AUC(0-t) (dog 18186, read-out: AUC0-696 h): 33000 ng·h/mL; AUC(0-t) (dog 18186, read-out: AUC0-2208 h): 38200 ng·h/mL; Cmax (dog 18186): 186 ng/mL; AUC(0-t) (mean of 2 dogs, read-out: AUC0-312 h): 27000 ng·h/mL; AUC(0-t) (mean of 2 dogs, read-out: AUC0-696 h): 33900 ng·h/mL; AUC(0-t) (mean of 2 dogs, read-out: AUC0-2208 h): 39400 ng·h/mL; Cmax (mean of 2 dogs): 173 ng/mL; Tmax (mean of 2 dogs): 24 h; concentration at 0 h (dog 17264, 0 h (d0, predose)): < 1 ng/mL; concentration at 1 h (dog 17264, 1 h): 110 ng/mL; concentration at 3 h (dog 17264, 3 h): 131 ng/mL; concentration at 8 h (dog 17264, 8 h): 130 ng/mL; concentration at 24 h (dog 17264, 24 h (d1)): 150 ng/mL; concentration at 48 h (dog 17264, 48 h (d2)): 159 ng/mL; concentration at 72 h (dog 17264, 72 h (d3)): 115 ng/mL; concentration at 144 h (dog 17264, 144 h (d6)): 86.2 ng/mL; concentration at 192 h (dog 17264, 192 h (d8)): 72.4 ng/mL; concentration at 240 h (dog 17264, 240 h (d10)): 56.7 ng/mL; concentration at 312 h (dog 17264, 312 h (d13)): 33.4 ng/mL; concentration at 384 h (dog 17264, 384 h (d16)): 23.9 ng/mL; concentration at 480 h (dog 17264, 480 h (d20)): 20.5 ng/mL; concentration at 648 h (dog 17264, 648 h (d27)): 11.4 ng/mL; concentration at 696 h (dog 17264, 696 h (d29)): 11.3 ng/mL; concentration at 864 h (dog 17264, 864 h (d36)): 7.33 ng/mL; concentration at 1032 h (dog 17264, 1032 h (d43)): 5.19 ng/mL; concentration at 1200 h (dog 17264, 1200 h (d50)): 3.4 ng/mL; concentration at 1368 h (dog 17264, 1368 h (d57)): 3 ng/mL; concentration at 1536 h (dog 17264, 1536 h (d64)): 2.84 ng/mL; concentration at 1704 h (dog 17264, 1704 h (d71)): 2.48 ng/mL; concentration at 1872 h (dog 17264, 1872 h (d78)): 1.79 ng/mL; concentration at 2040 h (dog 17264, 2040 h (d85)): 1.99 ng/mL; concentration at 2208 h (dog 17264, 2208 h (d92)): 1.56 ng/mL; concentration at 0 h (dog 18186, 0 h (d0, predose)): < 1 ng/mL; concentration at 1 h (dog 18186, 1 h): 82.6 ng/mL; concentration at 3 h (dog 18186, 3 h): 145 ng/mL; concentration at 8 h (dog 18186, 8 h): 136 ng/mL; concentration at 24 h (dog 18186, 24 h (d1)): 120 ng/mL; concentration at 48 h (dog 18186, 48 h (d2)): 132 ng/mL; concentration at 72 h (dog 18186, 72 h (d3)): 99.6 ng/mL; concentration at 144 h (dog 18186, 144 h (d6)): 91.9 ng/mL; concentration at 192 h (dog 18186, 192 h (d8)): 75.5 ng/mL; concentration at 240 h (dog 18186, 240 h (d10)): 62.5 ng/mL; concentration at 312 h (dog 18186, 312 h (d13)): 38 ng/mL; concentration at 384 h (dog 18186, 384 h (d16)): 20.6 ng/mL; concentration at 480 h (dog 18186, 480 h (d20)): 16.6 ng/mL; concentration at 648 h (dog 18186, 648 h (d27)): 9.08 ng/mL; concentration at 696 h (dog 18186, 696 h (d29)): 11.2 ng/mL; concentration at 864 h (dog 18186, 864 h (d36)): 6.44 ng/mL; concentration at 1032 h (dog 18186, 1032 h (d43)): 5.18 ng/mL; concentration at 1200 h (dog 18186, 1200 h (d50)): 3.25 ng/mL; concentration at 1368 h (dog 18186, 1368 h (d57)): 3 ng/mL; concentration at 1536 h (dog 18186, 1536 h (d64)): 2.44 ng/mL; concentration at 1704 h (dog 18186, 1704 h (d71)): 1.84 ng/mL; concentration at 1872 h (dog 18186, 1872 h (d78)): 1.45 ng/mL; concentration at 2040 h (dog 18186, 2040 h (d85)): 1.61 ng/mL; concentration at 2208 h (dog 18186, 2208 h (d92)): 1.25 ng/mL; concentration at 0 h (mean of 2 dogs, 0 h (d0, predose)): < 1 ng/mL; concentration at 1 h (mean of 2 dogs, 1 h): 96.3 ng/mL; concentration at 3 h (mean of 2 dogs, 3 h): 138 ng/mL; concentration at 8 h (mean of 2 dogs, 8 h): 133 ng/mL; concentration at 24 h (mean of 2 dogs, 24 h (d1)): 135 ng/mL; concentration at 48 h (mean of 2 dogs, 48 h (d2)): 146 ng/mL; concentration at 72 h (mean of 2 dogs, 72 h (d3)): 107 ng/mL; concentration at 144 h (mean of 2 dogs, 144 h (d6)): 89.1 ng/mL; concentration at 192 h (mean of 2 dogs, 192 h (d8)): 74 ng/mL; concentration at 240 h (mean of 2 dogs, 240 h (d10)): 59.6 ng/mL; concentration at 312 h (mean of 2 dogs, 312 h (d13)): 35.7 ng/mL; concentration at 384 h (mean of 2 dogs, 384 h (d16)): 22.3 ng/mL; concentration at 480 h (mean of 2 dogs, 480 h (d20)): 18.6 ng/mL; concentration at 648 h (mean of 2 dogs, 648 h (d27)): 10.2 ng/mL; concentration at 696 h (mean of 2 dogs, 696 h (d29)): 11.3 ng/mL; concentration at 864 h (mean of 2 dogs, 864 h (d36)): 6.89 ng/mL; concentration at 1032 h (mean of 2 dogs, 1032 h (d43)): 5.19 ng/mL; concentration at 1200 h (mean of 2 dogs, 1200 h (d50)): 3.33 ng/mL; concentration at 1368 h (mean of 2 dogs, 1368 h (d57)): 3 ng/mL; concentration at 1536 h (mean of 2 dogs, 1536 h (d64)): 2.64 ng/mL; concentration at 1704 h (mean of 2 dogs, 1704 h (d71)): 2.16 ng/mL; concentration at 1872 h (mean of 2 dogs, 1872 h (d78)): 1.62 ng/mL; concentration at 2040 h (mean of 2 dogs, 2040 h (d85)): 1.8 ng/mL; concentration at 2208 h (mean of 2 dogs, 2208 h (d92)): 1.41 ng/mL
